From PubChem BioAssay AID1745844 (Carcinogenic Potency Database (CPDB), 2022)
Activity calls are given as the source filed them. The rule behind the calls is not given here.

Test system: rodent lifetime carcinogenesis bioassay, tumor incidence TD50
Experiment: carcinogenic potency in animals, long-term in vivo studies, CPDB compilation (AID 1745844)

**Q.** How did the TD50 (mouse, strain B6C3F1, females, inhaled, site: all sites, lesion: hemangioma + hemangiosarcoma, dosed 103 weeks, study length 104 weeks) turn out when `CC1CO1` (stereo not drawn) was run?
**A.** 863 mg/kg/day

**Q.** What about the TD50 (mouse, strain B6C3F1, females, inhaled, site: all sites, lesion: hemangioma, dosed 103 weeks, study length 104 weeks) of the same compound?
**A.** 1810 mg/kg/day

**Q.** What about the TD50 (mouse, strain B6C3F1, females, inhaled, site: all sites, lesion: hemangiosarcoma, dosed 103 weeks, study length 104 weeks) of the same compound?
**A.** 1610 mg/kg/day

**Q.** And the TD50 (mouse, strain B6C3F1, females, inhaled, site: any site (literature study), lesion: several types, types named in the paper, dosed 103 weeks, study length 104 weeks)?
**A.** 226 mg/kg/day

**Q.** And the TD50 (mouse, strain B6C3F1, females, inhaled, site: liver, lesion: hepatocellular adenoma + hepatocellular carcinoma + neoplastic nodule, dosed 103 weeks, study length 104 weeks)?
**A.** 979 mg/kg/day

**Q.** What about the TD50 (mouse, strain B6C3F1, females, inhaled, site: lung, lesion: alveolar/bronchiolar adenoma + alveolar/bronchiolar carcinoma, dosed 103 weeks, study length 104 weeks) of the same compound?
**A.** 588 mg/kg/day

**Q.** What about the TD50 (mouse, strain B6C3F1, females, inhaled, site: lung, lesion: alveolar/bronchiolar adenoma, dosed 103 weeks, study length 104 weeks) of the same compound?
**A.** 588 mg/kg/day

**Q.** And the TD50 (mouse, strain B6C3F1, females, inhaled, site: mammary gland, lesion: adenocarcinoma + adenosquamous carcinoma, dosed 103 weeks, study length 104 weeks)?
**A.** 1260 mg/kg/day

**Q.** What about the TD50 (mouse, strain B6C3F1, females, inhaled, site: mammary gland, lesion: adenosquamous carcinoma, dosed 103 weeks, study length 104 weeks) of the same compound?
**A.** 2770 mg/kg/day

**Q.** What about the TD50 (mouse, strain B6C3F1, females, inhaled, site: nasal cavity, lesion: hemangioma + hemangiosarcoma, dosed 103 weeks, study length 104 weeks) of the same compound?
**A.** 1210 mg/kg/day

**Q.** And the TD50 (mouse, strain B6C3F1, females, inhaled, site: nasal cavity, lesion: hemangioma, dosed 103 weeks, study length 104 weeks)?
**A.** 2020 mg/kg/day

**Q.** What about the TD50 (mouse, strain B6C3F1, males, inhaled, site: all sites, lesion: hemangioma + hemangiosarcoma, dosed 103 weeks, study length 104 weeks) of the same compound?
**A.** 753 mg/kg/day

**Q.** And the TD50 (mouse, strain B6C3F1, males, inhaled, site: any site (literature study), lesion: several types, types named in the paper, dosed 103 weeks, study length 104 weeks)?
**A.** 722 mg/kg/day

**Q.** And the TD50 (mouse, strain B6C3F1, males, inhaled, site: nasal cavity, lesion: hemangioma + hemangiosarcoma, dosed 103 weeks, study length 104 weeks)?
**A.** 732 mg/kg/day

**Q.** What about the TD50 (mouse, strain B6C3F1, males, inhaled, site: nasal cavity, lesion: hemangioma, dosed 103 weeks, study length 104 weeks) of the same compound?
**A.** 1470 mg/kg/day

**Q.** What about the TD50 (mouse, strain B6C3F1, males, inhaled, site: nasal cavity, lesion: hemangiosarcoma, dosed 103 weeks, study length 104 weeks) of the same compound?
**A.** 1610 mg/kg/day

**Q.** What about the TD50 (rat, strain Fischer 344, females, inhaled, site: any site (literature study), lesion: several types, types named in the paper, dosed 103 weeks, study length 104 weeks) of the same compound?
**A.** 124 mg/kg/day

**Q.** And the TD50 (rat, strain Fischer 344, females, inhaled, site: cervix uteri + uterus, lesion: endometrial stromal polyp + endometrial stromal sarcoma, dosed 103 weeks, study length 104 weeks)?
**A.** 156 mg/kg/day

**Q.** And the TD50 (rat, strain Fischer 344, females, inhaled, site: nasal cavity, lesion: papillary adenoma, dosed 103 weeks, study length 104 weeks)?
**A.** 732 mg/kg/day

**Q.** And the TD50 (rat, strain Fischer 344, males, inhaled, site: adrenal gland, lesion: pheochromocytoma, dosed 101 weeks, study length 104 weeks)?
**A.** 35.1 mg/kg/day

**Q.** And the TD50 (rat, strain Fischer 344, males, inhaled, site: any site (literature study), lesion: several types, types named in the paper, dosed 103 weeks, study length 104 weeks)?
**A.** 220 mg/kg/day

**Q.** And the TD50 (rat, strain Fischer 344, males, inhaled, site: liver, lesion: hepatocellular adenoma + hepatocellular carcinoma + neoplastic nodule, dosed 103 weeks, study length 104 weeks)?
**A.** 528 mg/kg/day

**Q.** What about the TD50 (rat, strain Fischer 344, males, inhaled, site: liver, lesion: hepatocellular carcinoma, dosed 101 weeks, study length 104 weeks) of the same compound?
**A.** 2960 mg/kg/day

**Q.** What about the TD50 (rat, strain Fischer 344, males, inhaled, site: nasal cavity, lesion: papillary adenoma, dosed 103 weeks, study length 104 weeks) of the same compound?
**A.** 826 mg/kg/day

**Q.** And the TD50 (rat, strain Sprague-Dawley, females, by gavage, site: forestomach, lesion: squamous-cell carcinoma, dosed 109 weeks, study length 150 weeks)?
**A.** 44.3 mg/kg/day

**Q.** And the TD50 (rat, strain Sprague-Dawley, females, by gavage, site: stomach, lesion: several types, types named in the paper, dosed 109 weeks, study length 150 weeks)?
**A.** 39.5 mg/kg/day

**Q.** What about the TD50 (rat, strain Wistar-random, females, inhaled, site: any site (literature study), lesion: malignant tumor, dosed 123 weeks, study length 123 weeks) of the same compound?
**A.** 150 mg/kg/day

**Q.** And the TD50 (rat, strain Wistar-random, females, inhaled, site: any site (literature study), lesion: one or several types, types not named, dosed 123 weeks, study length 123 weeks)?
**A.** 25.7 mg/kg/day

**Q.** What about the TD50 (rat, strain Wistar-random, females, inhaled, site: liver, lesion: cholangioma, dosed 123 weeks, study length 123 weeks) of the same compound?
**A.** 2460 mg/kg/day

**Q.** What about the TD50 (rat, strain Wistar-random, females, inhaled, site: mammary gland, lesion: adenocarcinoma, dosed 123 weeks, study length 123 weeks) of the same compound?
**A.** 813 mg/kg/day

**Q.** What about the TD50 (rat, strain Wistar-random, females, inhaled, site: mammary gland, lesion: fibroadenoma, dosed 123 weeks, study length 123 weeks) of the same compound?
**A.** 92.6 mg/kg/day

**Q.** What about the TD50 (rat, strain Wistar-random, males, inhaled, site: any site (literature study), lesion: malignant tumor, dosed 124 weeks, study length 124 weeks) of the same compound?
**A.** 101 mg/kg/day

**Q.** What about the TD50 (rat, strain Wistar-random, males, inhaled, site: any site (literature study), lesion: one or several types, types not named, dosed 124 weeks, study length 124 weeks) of the same compound?
**A.** 79.3 mg/kg/day

**Q.** And the TD50 (rat, strain Wistar-random, males, inhaled, site: respiratory system, lesion: carcinoma, dosed 124 weeks, study length 124 weeks)?
**A.** 896 mg/kg/day

**Q.** Which TD50 (mouse, strain (C3H x RIII)F1 (MTV+), females, in feed, site: mammary tissue, wider than the gland, lesion: one or several types, types not named, dosed 104 weeks, study length 104 weeks) does the source give for `C#C[C@]1(O)CC[C@H]2[C@@H]3CCC4=C(CCC(=O)C4)[C@H]3CC[C@@]21C` here?
**A.** 2.13 mg/kg/day

**Q.** What about the TD50 (mouse, strain CFLP, females, in feed, site: liver, lesion: hepatocellular tumor, dosed 78 weeks, study length 78 weeks) of the same compound?
**A.** 49.1 mg/kg/day (inactive)

**Q.** What about the carcinogen call (mouse, strain CFLP, males, in feed, site: liver, lesion: hepatocellular tumor, dosed 78 weeks, study length 78 weeks) of the same compound?
**A.** negative (inactive)

**Q.** And the carcinogen call (mouse, strain Swiss Webster, females, by gavage, site: liver, lesion: hepatocellular tumor, dosed 65 weeks, study length 80 weeks)?
**A.** negative (inactive)
